Here are results for two compounds from US10561638B2, “Methods for treating dependence” (Biotie Therapies, Inc., priority 2007, dated 2020).

Entries after “also recorded” stand apart in the source; their conditions may differ.

The test has as its system tissue noradrenaline and dopamine content. The test can be described thus: Tissue catecholamines in SHRs after three oral doses 12 h apart. The class given is in vivo, spontaneously hypertensive rats. Conditions: for increase in DA/NE ratio / nepicastat compared with SKF-102698, catecholamine changes: 30 mg/kg; for maximal increase in DA/NE ratio: 100 mg/kg; for decrease in noradrenaline / increase in dopamine: 100 mg/kg po x3. The method, then:
Male SHRs (15-16 weeks old, Charles River, Wilmington, Mass., USA) were used in in vivo studies. On the day of the study, animals were weighed and randomly assigned to be dosed with either vehicle (control) or the appropriate dose of nepicastat (3, 10, 30 or 100 mg·kg^−1, po) or Compound B (30 mg·kg^−1, po) three consecutive times, twelve hours apart. At six hours after the third dose, the rats were anaesthetized with halothane, decapitated and tissues (cerebral cortex, mesenteric artery and left ventricle) were rapidly harvested, weighed, placed in iced perchloric acid (0.4 M), frozen in liquid nitrogen and stored at −70° C. until subsequent analysis. To quantify noradrenaline and dopamine concentrations, tissues were homogenized by brief sonication and centrifuged at 13,000 rpm for 30 minutes at 4° C. The supernatant, spiked with 3,4-dihydroxybenzylamine (internal standard), was assayed for noradrenaline and dopamine by HPLC using electrochemical detection.
Nepicastat was used in in vivo biochemical studies to study the effects in spontaneously hypertensive rats (SHRs) and normal beagle dogs. On the day of the study, the animals were weighed and randomly assigned to receive either placebo (vehicle) or the appropriate dose of nepicastat. Each rat was dosed orally three times, 12 h apart, beginning in the morning. At 6 h after the third dose, the rats were anesthetized with halothane, decapitated, and the tissues (cerebral cortex, mesenteric artery and left ventricle) were rapidly harvested, weighed, placed in iced 0.4 M perchloric acid, frozen in liquid nitrogen and stored at −70° C. until analysis. Tissue NE and DA concentrations were assayed by HPLC using electrochemical detection. Male beagle dogs (10-16 kg, Marshall Farms USA Inc, North Rose, N.Y.) were used in the study. On the day of the study, dogs were randomly assigned to receive either placebo (empty capsule) or the appropriate dose of nepicastat. Each dog was dosed twice a day for 4.5 days. 6 h after the first dose on day 5, the dogs were euthanized with pentobarbital and the tissues (cerebral cortex. renal artery, left ventricle) harvested, weighed, placed in iced 0.4 M perchloric acid, frozen in liquid nitrogen and stored at −70° C. until analysis. Tissue NE and DA concentrations were assayed by HPLC using electrochemical detection.
Fifteen to sixteen week old male spontaneously hypertensive rats (SHRs) (Charles River Labs) were allowed food and water ad libitum. Animals were weighed and randomly assigned to one of the following treatment groups: 1) distilled water vehicle (dH2O), or nepicastat at 3, 10, 30, and 100 mg/kg, 2) Compound B at 30 mg/kg in distilled water, or 3) PEG 400:dH2O vehicle or SKF-102698 at 30 mg/kg. Each rat was dosed orally (p.o., using a gavage needle) three times 12 hours apart, beginning in the morning. At six hours after the third dose rats were anesthetized with halothane, decapitated, and the cortex, mesenteric artery, and left ventricle were rapidly harvested, weighed, placed in iced 0.4 M perchioric acid, frozen in liquid nitrogen, and stored at −70° C. Tissue dopamine and norepinephrine concentrations were assayed by high performance liquid chromatography and electrochemical detection.
Four series of statistical analyses were performed. The first series compared the rats treated with various doses of nepicastat, and Compound B at 30 mg/kg to the vehicle control animals. A nonparametric one-way analysis of variance (ANOVA) with factor Dose and blocking factor Day was performed for each tissue and strain separately. […] Pairwise analysis between treated and controls at each dose were carried out using Dunnett's test to control the experiment-wise error rate. The second statistical test compared SKF-102698 to the PEG-dH2O vehicle treated group using a nonparametric t-test. The third statistical test compared Compound B to nepicastat at doses of 30 mg/kg using a nonparametric t-test.

The mark [1] stands for this setting: cerebral cortex, 30 and 100 mg/kg.
Setting [2] is: left ventricle and mesenteric artery.
The mark [3] stands for this setting: left ventricle, 3, 10, 30 and 100 mg/kg.

For the compound `Cl.NCc1c[nH]c(=S)n1[C@H]1CCc2c(F)cc(F)cc2C1` [nepicastat, (S)-5-Aminomethyl-1-(5,7-difluoro-1,2,3,4-tetrahydronaphth-2-yl)-2,3-dihydro-2-thioxo-1H-imidazole hydrochloride], the “nepicastat compared with the R-enantiomer (Compound B), catecholamine changes” value (30 mg/kg po x3, mesenteric artery and/or left ventricle, hydrochloride) is “significantly greater changes in catecholamine content; also recorded: significantly more potent then the R enantiomer; also recorded: significantly more effective (p<0.01) than Compound B”. The “increase in DA/NE ratio” value came to 1.5 fold (cerebral cortex), 7.5 fold (left ventricle) and 8.3 fold (mesenteric artery). For the same compound, the “norepinephrine levels, nepicastat compared to Compound B” value (cerebral cortex, 30 mg/kg x3) is given as “significantly lower”. Also, the “nepicastat compared with SKF-102698, catecholamine changes” value reads like this: (cerebral cortex, hydrochloride) “significantly less effects than SKF-102698; also recorded: greater for SKF-102698 than for nepicastat; also recorded: less effective in the cerebral cortex”; (left ventricle and/or mesenteric artery, hydrochloride) “significantly more potent than the DBH inhibitor SKF-102698; also recorded: greater for nepicastat than for SKF-102698; also recorded: more effective than SKF-102698”. The “maximal increase in DA/NE ratio” value is on record as 3.2 fold (cerebral cortex), 11 fold (left ventricle) and 14 fold (mesenteric artery). Further, the decrease in noradrenaline was found to be 42% (cerebral cortex), 35% (left ventricle) and 47% (mesenteric artery). Besides, the increase in dopamine reads like this: (cerebral cortex) 86%; (left ventricle) 800%; (mesenteric artery) 820%. Besides, the “dopamine concentration vs vehicle” value was “significantly (p<0.05) greater” under setting [1]; “significantly (p<0.05) greater than vehicle” under setting [3]; “significantly (p<0.05) greater than vehicle” (mesenteric artery, 3, 10, 30 and 100 mg/kg). Moreover, the “dopamine/norepinephrine ratio vs vehicle” value is listed as “significantly (p<0.05) greater” under setting [1]; “significantly (p<0.05) greater than vehicle” under setting [3]; “significantly (p<0.05) greater than vehicle” (mesenteric artery, all doses). Besides, the “norepinephrine concentration vs vehicle” value by setting is: under setting [1], “significantly (p<0.05) lower”; (left ventricle, 10, 30 and 100 mg/kg) “significantly (p<0.05) lower than vehicle”; (mesenteric artery, 10, 30 and 100 mg/kg) “not significantly less (p>0.05)”. For the same compound, under setting [2], the “dose for significant decrease in norepinephrine” value amounted to 10 mg/kg. In addition, the “dose for significant increase in dopamine” value under setting [2] was found to be 3.0 mg/kg. Besides, the “dose for significant increase in dopamine/norepinephrine ratio” value under setting [2] turned out to be 3.0 mg/kg. The “doses at which catecholamine changes attained significance (p<0.05)” value (mesenteric artery and left ventricle) is at least 3 mg/kg.

Consider `Fc1cc(F)cc(Cn2cc[nH]c2=S)c1` [SKF-102698, reference compound], for which the “increase in DA/NE ratio” value is 2.7 fold (cerebral cortex), 3.5 fold (left ventricle) and 5.5 fold (mesenteric artery). The dopamine vs vehicle entry is given as “significantly greater (p<0.01) than vehicle” (cerebral cortex, 30 mg/kg x3); “significantly greater (p<0.01) than vehicle” (left ventricle, 30 mg/kg x3); “significantly greater than vehicle” (mesenteric artery, 30 mg/kg x3). Further, the “dopamine/norepinephrine ratio vs vehicle” value reads like this: (cerebral cortex, 30 mg/kg x3) “significantly (p<0.01) greater than vehicle”; (left ventricle, 30 mg/kg x3) “significantly (p<0.05) greater than vehicle”; (mesenteric artery, 30 mg/kg x3) “significantly greater than vehicle”. Further, the norepinephrine vs vehicle result is given as “significantly lower than vehicle” (cerebral cortex, 30 mg/kg x3); “not different from vehicle” (left ventricle, 30 mg/kg x3); “significantly lower than vehicle” (mesenteric artery, 30 mg/kg x3).
